Assay results reported in US9220740B2.

What was measured:
ERβ [1] = target: T1, ERβ (Homo sapiens, UniProt Q92731); test: Repression of TNF-α activation of TNF-RE tkLuc in U2OS cells with ERβ; assay type: cell-based; parameters: expressed in transfected cells
ERβ [2] = target: T1, ERβ; settings: in the presence of ERβ
TNF-RE tkLuc = test: Effect of antiestrogens on TNF-RE tkLuc (Example 2); assay type: cell-based, human; settings: for effect on the repression induced by E2: TNF-RE tkLuc; for activation of TNF-RE tkLuc: antiestrogens
ERβ [3] = target: T1, ERβ; test: ERE-tk-Luc luciferase activation in U2OS cells cotransfected with human ERβ; assay type: cell-based; parameters: expressed in transfected cells; host or cells: U2OS (human osteosarcoma); settings: competition with the Astragalus extract
breast cancer = settings: cited from earlier work

T1 sequence (Q92731 whole entry): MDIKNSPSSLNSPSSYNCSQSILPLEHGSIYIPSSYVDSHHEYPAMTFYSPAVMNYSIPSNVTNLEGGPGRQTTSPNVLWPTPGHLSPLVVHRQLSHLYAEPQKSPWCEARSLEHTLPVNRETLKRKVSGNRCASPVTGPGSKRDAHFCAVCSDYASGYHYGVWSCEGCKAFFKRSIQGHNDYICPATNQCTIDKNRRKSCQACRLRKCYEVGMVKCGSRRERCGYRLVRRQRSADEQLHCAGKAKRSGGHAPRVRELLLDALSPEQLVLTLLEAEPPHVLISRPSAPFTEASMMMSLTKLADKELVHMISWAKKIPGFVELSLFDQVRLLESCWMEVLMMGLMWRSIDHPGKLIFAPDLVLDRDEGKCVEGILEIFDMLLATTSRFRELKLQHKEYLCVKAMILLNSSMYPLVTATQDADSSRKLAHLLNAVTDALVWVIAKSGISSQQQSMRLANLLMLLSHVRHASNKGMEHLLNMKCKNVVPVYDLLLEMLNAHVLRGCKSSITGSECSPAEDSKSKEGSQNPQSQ

| repression of TNF-α activation of TNF-RE (ERβ [1]) [%] | repression of TNF-α activation of TNF-RE tkLuc (ERβ [2]) | effect on the extract's stimulatory effect on the ERE with ERβ (FIG. 6) (ERβ [3]) | SMILES | effect on the repression induced by E2 (TNF-RE tkLuc) | activation of TNF-RE tkLuc (TNF-RE tkLuc) [fold] | reduction of the risk of primary invasive breast cancer (breast cancer; BCPT, women at high risk for breast cancer) [%] | reduction of the risk of recurrences (breast cancer; five years of therapy, women with estrogen receptor-positive breast cancer) [%] | reduction of mortality from breast cancer (breast cancer; five years of therapy) [%] |
| --- | --- | --- | --- | --- | --- | --- | --- | --- |
| 100 | 60-80% |  | C[C@]12CC[C@@H]3c4ccc(O)cc4CC[C@H]3[C@@H]1CC[C@@H]2O [E2, estradiol] |  |  |  |  |  |
|  |  |  | C[C@]12CC[C@@H]3c4ccc(O)cc4C[C@@H](CCCCCCCCC[S+]([O-])CCCC(F)(F)C(F)(F)F)[C@H]3[C@@H]1CC[C@@H]2O (stereo partly drawn) [ICI 182, 780] | abolished | 2 |  |  |  |
|  |  | inhibited | O=C(c1ccc(OCCN2CCCCC2)cc1)c1c(-c2ccc(O)cc2)sc2cc(O)ccc12 [raloxifene] | abolished | 2 |  |  |  |
|  |  |  | CC/C(=C(\c1ccccc1)c1ccc(OCCN(C)C)cc1)c1ccccc1 [tamoxifen] | abolished | 2 | 49 | 42 | 22 |
